Entries after “also recorded” stand apart in the source; their conditions may differ. Read-outs that look alike come from different tables or passages of the source.
Experiments:
[1] = cited from earlier work; for amount that will dissolve in water: in 1 liter of water at 20° C.
[2] = Serum beta-hydroxybutyrate (BHB) levels in aged beagle dogs fed MCTs; assay type: in vivo
Protocol: Reducing oxidative damage and improving mitochondrial efficiency. Two groups of aged beagle dogs were tested for the effects of feeding MCT on oxidative damage and mitochondrial efficiency. The first group was maintained on MCTs (2 g/kg/day) and the second group on placebo control over a 2-month period. Blood samples were taken over 5 time points to monitor levels of the ketone body, beta-hydroxybutyrate (BHB). After two months of treatment, the dogs were anaesthetized and brain biopsies were collected for mitochondrial analysis. The animals were then euthanized and brain tissue was harvested for further analysis of mitochondrial function and protein levels.
The eight subjects (8-11 years) were divided into two equal sized groups, matched for age and sex. The first group was administered 2 g/kg/day of MCTs, which was added to their maintenance diet, and the other received only the maintenance diet. The test substance was manually added to the dog's normal chow and introduced over three days, such that one-third of the maximum dose was administered on the first day, two-thirds on the second day and the full dose on the third day. The subjects were maintained on the test substance over a two-month period. Blood samples for BHB analysis were taken on: Baseline (Day 0), Day 4, Day 14, Day 28, Biopsy/Euthanasia (Day 56 or 57).
Biopsy procedure. Approximately 30 minutes prior to surgery, a blood sample was taken for BHB analysis and then the animals were pre-medicated with acepromazine. Animals were induced using isoflurane (inhaled) via a facemask. The animal then were intubated and maintained in a deep plane of anaesthesia using isoflurane. […]
Serum BHB levels were assessed at five different time-points: (1) prior to treatment onset (T0), (2) after 4 days of treatment (T1), (3) after 14 days of treatment (T2), (4) after 28 days of treatment (T3), and (5) on the biopsy date (T4). The levels were analyzed using a repeated-measures ANOVA with time-point (T0 vs. T1 vs. T2 vs. T3 vs. T4) as a within-subject variable and group (control vs. MCT) as a between-subject variable.

brain mitochondria = assay: Respiration assays on brain mitochondria isolated from biopsies of MCT-fed aged beagle dogs; assay type: in vivo; settings: for respiratory control ratio (RCR), coupling of respiration with ATP production: state III / state IV respiration, treatment vs control
Protocol: On the day of biopsy, the treatment group was administered 2 g/kg of MCTs and the control group was administered an isocaloric solution of sucrose by an oral-gastric tube. Approximately two hours after dosing, the animals were anaesthetized and biopsies were taken from the frontal and parietal lobes. Immediately after removing the biopsy tissue, the animals were euthanized with an injectable euthanizing agent.
Using the biopsied material, brain mitochondria were isolated and the following parameters were assayed in real-time:
Mitochondrial Assays. Mitochondria were isolated using differential centrifugation and released from synaptosomes using a nitrogen cell disrupter (1000 psi for 5 minutes).
The respiration assays were conducted using standard polarography in a sealed, thermostated, stirred chamber containing a Clark-type electrode, which measures oxygen within the chamber. The system was calibrated with oxygen-saturated water, to standardize the quantification of oxygen consumption. The assays were conducted at 37° C.
Once the mitochondria were inserted into the Oxytherm, complex I driven respiration (state II respiration) was measured by adding pyruvate and malate (2.5 and 5 mM). Subsequently, 150 μM ADP was added to induce state III respiration, which measured the rate of active respiration. Oligomycin was added to inhibit ATP synthase and put the mitochondria into state IV respiration. To assess UCP activity, free fatty acids were added. FCCP then was added to completely uncouple the mitochondria by depolarizing the membrane potential, which caused maximum electron transport activity and maximum oxygen consumption. Finally, rotenone was added to inhibit complex I electron transport and succinate was added to measure maximum complex II-driven electron transport and oxygen consumption (complex II-driven respiration). The respiratory control ratio (RCR) was tabulated by dividing state III respiration rates by state IV respiration rates.
The respiration rates that were tabulated on-site were analyzed using repeated-measures ANOVAs. For each measure, brain region (frontal vs. parietal) was the within-subject variable and group (control vs. MCT) was the between-subject variable.

MPTP treated mice = assay: MPTP mouse model of Parkinson's disease; assay type: in vivo, C57BL mice
Protocol: 8- to 10-week-old male C57BL mice will be divided into four groups: control, MPTP treated plus dextrose, and MPTP treated plus MCT. In dextrose treated pups, 0.5 g/kg of dextrose will be administered by oral gavage 2 to 4 hours before MPTP treatment. In MCT treated pups, 0.5 g/kg of MCTs will be administered by oral gavage 2 to 4 hours before MPTP treatment. Each mouse will then be randomly assigned to receive four intraperitoneal injections of either MPTP (18 mg/kg of free base in saline) or saline at 2-hour intervals. Mice will subsequently be tested for motor performance on a rotarod. The rotarod will consist of four rotating rods of 3 cm diameter in separated compartments. Seven days after MPTP or saline injections the mice will be first pretrained three times (1 hour apart) using an accelerating mode. After the training sessions, the time on the rod will be recorded for successive rotational speeds, and the overall rod performance (ORP) for each mouse calculated.
Seven days after the last MPTP injection, mice will be killed and their brain tissue processed for immunohistochemical studies to examine levels of oxidative stress and effects of MPTP treatment. Cell fractions from the biopsied tissue will be frozen and analyzed for oxidative damage using markers of peroxynitrite, lipid peroxidation and 3-nitrotyrosine. […] In addition mitochondria will be isolated from each group and examined for mitochondrial efficiency.

[3] = test system: brain tissue fractions (mitochondrial, P1, cytosolic); assay: Markers of oxidative damage in brain fractions of MCT-fed aged beagle dogs; assay type: in vivo; settings: MCT vs control
Protocol: The remaining mitochondria were stored in 10% DMSO at −80° C. and assayed for UCP isoforms by western blot and quantification of oxidative damage in the mitochondrial, P1 and cytosolic fractions. Mitochondria from the biopsied tissue were frozen and analyzed for oxidative damage using markers of peroxynitrite, lipid peroxidation and 3-nitrotyrosine. Markers of Oxidative Damage. The markers of oxidative damage were analyzed using a repeated-measures ANOVA with region (frontal vs. parietal) and fraction (mitochondrial vs. P1 vs. cytosolic) as the within-subject variables and group (control vs. MCT) as the between-subject variable.

**Q.** With CCCCCC(=O)O [Caproic, caproic acid] as the compound, how does the Solubility [1] read?
**A.** 9.7 grams of acid per liter

**Q.** And the “amount that will dissolve in water” value [1]?
**A.** 9.7 grams

**Q.** Which Solubility ([1]; water at 20° C.) does the source give for CCCCCCCCCCCCCC(=O)O [Myristic] here?
**A.** 0.02 grams of acid per liter

**Q.** With CCCCCCCCCCCC(=O)O [Lauric] as the compound, how does the Solubility ([1]; water at 20° C.) read?
**A.** 0.055 grams of acid per liter

**Q.** With CCCCCCCCCCCCCCCC(=O)O [Palmitic, palmitic acid] as the compound, how does the “amount that will dissolve in water” value [1] read?
**A.** 0.007 grams

**Q.** Which results are given for CCCCCCCC(=O)OCC(COC(=O)CCCCCCC)OC(=O)CCCCCCC [MCTs, tri-C8:0 medium chain triglycerides]?
**A.** levels of serum BHB ([2]; aged beagle dogs, MCTs 2 g/kg/day for 2 months vs control): increased levels of serum BHB; Serum BHB levels at T4 ([2]; biopsy date (Day 56 or 57), MCT vs control, p=0.012): significantly higher; Serum BHB levels at T3 ([2]; day 28 of treatment, MCT vs control, p=0.041): significantly higher; State III respiration (brain mitochondria; parietal and frontal cortices vs control, group effect p=0.008): more oxygen consumption per minute than the control group; State IV respiration (brain mitochondria; parietal and frontal cortices vs control, marginally significant p=0.067): slightly more oxygen consumption per minute than the control group; Uncoupling Protein (UCP) activity (brain mitochondria; parietal and frontal cortices vs control, marginally significant p=0.086): consumed more oxygen per minute than the control animals; improvement of mitochondrial function by brain region (brain mitochondria; parietal cortex vs frontal cortex): more effective at improving mitochondrial function in the parietal cortex than the frontal cortex; State II respiration (brain mitochondria; parietal cortex, oxygen consumption per minute per mg of tissue vs control, p=0.010): significantly less oxygen consumption; respiratory control ratio (RCR), coupling of respiration with ATP production (brain mitochondria): better coupling of respiration with ATP formation; respiratory control ratio (RCR), coupling of respiration with ATP production (brain mitochondria; listed as MCT): better coupled to ATP production; Complex I-driven respiration (maximum electron transport capacity) (brain mitochondria; vs control, group effect p=0.002): larger maximum electron transport activity than the control group; Complex II-driven respiration (brain mitochondria; vs control, region x group interaction p=0.047, listed as MCT): consumed more oxygen per minute than the control in the parietal cortex; also recorded: no difference; motor performance on rotarod (MPTP treated mice; 0.5 g/kg MCTs oral gavage 2 to 4 hours before MPTP): lessen the decline in motor performance; signs of oxidative damage (MPTP treated mice; brain tissue seven days after last MPTP injection): fewer signs of oxidative damage; mitochondrial efficiency (MPTP treated mice; isolated mitochondria): improved mitochondrial efficiency; Lipid oxidation, effect of group ([3]; frontal and parietal, mitochondrial, P1 and cytosolic fractions): no additional significant or marginally significant effects; signs of oxidative damage ([3]; peroxynitrite (protein oxidation), lipid oxidation and 3-nitrotyrosine): decreased signs of oxidative damage; also recorded: decrease oxidative damage

— patent US20100041751A1, “Method to Reduce Oxidative Damage and Improve Mitochondrial Efficiency” (ACCERA, INC., priority 2005, published 2010)
